The record followed here is ChEMBL document CHEMBL1141837, “New steroidal alkaloids from the roots of buxus sempervirens” (1999).

Calls of active or inactive are those of the source. No cut-off for these calls is given here.

Common to all, as to assay type: functional
Test [1] concerns Lemna minor. Put plainly: Phytotoxicity against Lemna minor L. at 500 ppm.
For test [2], the system named is Lemna minor. Put plainly: Phytotoxicity against Lemna minor L. at 50 ppm.
In test [3] the test system is Lemna minor. Put plainly: Phytotoxicity against Lemna minor L. at 5 ppm.

Take `CC(=O)O[C@H]1C[C@@H]2[C@H](CC[C@]3(C)[C@@H]([C@H](C)N(C)C)CC[C@@]23C)CC2=C[C@@H](O)[C@H](NC(=O)c3ccccc3)C(C)(C)[C@@H]21`: the result with Lemna minor [1], with Lemna minor [2] and in the test with Lemna minor [3] was inactive.

Take `C[C@@H]([C@H]1CC[C@@]2(C)[C@@H]3CC[C@@H]4C(=CC3=CC[C@]12C)CC[C@H](N)C4(C)C)N(C)C`: the outcome in the test with Lemna minor [1], with Lemna minor [2] and in the test on Lemna minor [3] was inactive.

Take `CC(=O)O[C@H]1C[C@@H]2[C@@]3(CC4=C[C@@H](O)[C@H](NC(=O)c5ccccc5)C(C)(C)[C@@H]41)O[C@H]3C[C@]1(C)[C@@H]([C@H](C)N(C)C)CC[C@@]21C`: the Activity was 86% with Lemna minor [1], 57% with Lemna minor [2] and 57% in the test with Lemna minor [3].

In the case of `CC(=O)O[C@H]1C[C@@H]2[C@@]3(CC4=C[C@@H](OC(C)=O)[C@H](NC(=O)c5ccccc5)C(C)(C)[C@@H]41)O[C@H]3C[C@]1(C)[C@@H]([C@H](C)N(C)C)CC[C@@]21C`, the Activity in the test on Lemna minor [1] is recorded as 86%; in the test on Lemna minor [2], 71%; in the test on Lemna minor [3], 57%.

For `CN[C@H]1CC[C@]23C[C@]24CC[C@]2(C)C(=O)CC[C@@]2(C)[C@@H]4CC[C@H]3C1(C)C`, the outcome in the test on Lemna minor [1], with Lemna minor [2] and in the test with Lemna minor [3] was inactive.
